Like-named read-outs stand apart in the source and are kept apart here.
Legend:
Assay type in all cases: in vivo
[1] = system: spring wheat (Triticum aestivum L; TRZAS); assay: Postemergence herbicidal safening in cereal crops, greenhouse, visual injury: spring wheat; settings: Triticum aestivum, post-emergence, 480 h, 20-22 d, read-out: TRZAS Ob (visual injury); for pest or weed control at 70 g/ha: herbicide alone 70 g/ha
Method: (§1) Evaluation of Postemergence Herbicidal Safening in Cereal Crops
(§2) Seeds of the desired test plant species were planted in Sun Gro MetroMix® 306 planting mixture, which typically has a pH of 6.0 to 6.8 and an organic matter content of about 30 percent, in plastic pots with a surface area of 103.2 square centimeters (cm^2). When required to ensure good germination and healthy plants, a fungicide treatment and/or other chemical or physical treatment was applied. The plants were grown for 7-36 days (d) in a greenhouse with an approximate 14-hour (h) photoperiod which was maintained at about 18° C. during the day and 17° C. during the night. Nutrients and water were added on a regular basis and supplemental lighting was provided with overhead metal halide 1000-Watt lamps as necessary. The plants were employed for testing when they reached the second or third true leaf stage.
(§3) Treatments consisted of the acids or esters of compounds 1-10 and cloquintocet-mexyl (CQC-M), fenchlorazole-ethyl, mefenpyr-diethyl alone and in combination. Weighed amounts of acid or methyl esters of the compounds of formula (I) were dissolved in a volume of 97:3 v/v acetone/dimethylsulfoxide (DMSO) to obtain concentrated solutions. […] The concentrated solutions of the test compound were diluted with the addition of an aqueous mixture containing acetone, water, isopropyl alcohol, DMSO, Agri-Dex crop oil concentrate, and Triton® X-77 surfactant in a 64.7:26.0:6.7:2.0:0.7:0.01 v/v ratio. Test compounds were diluted to the appropriate application rate with a dilution solution which was prepared by mixing the appropriate volume of 97:3 v/v acetone/DMSO and the appropriate volume of an aqueous mixture containing acetone, water, isopropyl alcohol, DMSO, Agri-Dex crop oil concentrate, and Triton® X-77 surfactant in a 64.7:26.0:6.7:2.0:0.7:0.01 v/v ratio. Compound requirements are based upon a 12 mL application volume at a rate of 187 liters per hectare (L/ha). The concentrated solutions of the safener were prepared following the same procedure. Weighed amounts of safener were dissolved in a volume of 97:3 v/v acetone/DMSO to obtain concentrated safener solutions.
(§4) Spray solutions of the herbicide safener and test compound mixtures were prepared by adding the concentrated solutions to the appropriate amount of dilution solution to form 12 mL spray solution with active ingredients in combinations.
(§5) Formulated compounds were applied to the plant material with an overhead Mandel track sprayer equipped with 8002E nozzles calibrated to deliver 187 L/ha over an application area of 0.503 square meters (m^2) at a spray height of 18 inches (43 centimeters (cm)) above average plant canopy. Control plants were sprayed in the same manner with the solvent blank.
(§6) The treated plants and control plants were placed in a greenhouse as described above and watered by sub-irrigation to prevent wash-off of the test compounds. After 20-22 d, the condition of the test plants as compared with that of the control plants was determined visually and scored on a scale of 0 to 100 percent where 0 corresponds to no injury and 100 corresponds to complete kill.
(§7) Colby's equation was used to determine the herbicidal effects expected from the mixtures (Colby, S. R. Calculation of the synergistic and antagonistic response of herbicide combinations. Weeds 1967, 15, 20-22.).
(§8) The following equation was used to calculate the expected activity of mixtures containing two active ingredients, A and B: Expected=A+B−(A×B/100)
(§9) A=observed efficacy of active ingredient A at the same concentration as used in the mixture.
(§10) B=observed efficacy of active ingredient B at the same concentration as used in the mixture.

[2] = system: spring barley (Hordeum vulgare L; HORVS); assay: Postemergence herbicidal safening in cereal crops, greenhouse, visual injury: spring barley; settings: Hordeum vulgare, post-emergence, 480 h, 20-22 d, read-out: HORVS Ob (visual injury); for pest or weed control at 70 g/ha: herbicide alone 70 g/ha
Method: as §1, §2, §3, §4, §5, §6, §7, §8, §9, §10

[3] = system: purple deadnettle (Lamium purpureum L; LAMPU); assay: Postemergence herbicidal activity, greenhouse, visual injury: purple deadnettle; settings: Lamium purpureum, post-emergence, 480 h, 20-22 d, read-out: LAMPU Ob (visual injury); for pest or weed control at 70 g/ha: herbicide alone 70 g/ha
Method: as §1, §2, §3, §4, §5, §6, §7, §8, §9, §10

[4] = system: kochia (Kochia scoparia L; KCHSC); assay: Postemergence herbicidal activity, greenhouse, visual injury: kochia; settings: 20-22 d
Method: as §1, §2, §3, §4, §5, §6, §7, §8, §9, §10

[5] = system: corn poppy (Papaver rhoeas L; PAPRH); assay: Postemergence herbicidal activity, greenhouse, visual injury: corn poppy; settings: 20-22 d
Method: as §1, §2, §3, §4, §5, §6, §7, §8, §9, §10

[6] = system: lamb's-quarters (Chenopodium album L; CHEAL); assay: Postemergence herbicidal activity, greenhouse, visual injury: lamb's-quarters; settings: 20-22 d
Method: as §1, §2, §3
Spray solutions of the herbicide safener and test compound mixtures were prepared by adding the concentrated solutions to the appropriate amount of dilution solution to form 12 mL spray solution with active ingredients in combinations. […]
as §6, with “kill. […]” for “kill.”

[7] = system: winter wheat (Triticum aestivum L; TRZAW); assay: Postemergence herbicidal safening in cereal crops, greenhouse, visual injury: winter wheat; settings: 20-22 d
Method: as §1, §2, §3, §4, §5, §6, §7, §8, §9, §10

[8] = system: winter barley (Hordeum vulgare L; HORVW); assay: Postemergence herbicidal safening in cereal crops, greenhouse, visual injury: winter barley; settings: 20-22 d
Method: as §1, §2, §3, §4, §5, §6, §7, §8, §9, §10

[9] = system: durum wheat (Triticum durum L; TRZDU); assay: Postemergence herbicidal safening in cereal crops, greenhouse, visual injury: durum wheat; settings: 20-22 d
Method: as §1, §2, §3, §4, §5, §6, §7, §8, §9, §10

[10] = system: AMARE; assay: Postemergence herbicidal activity, greenhouse, visual injury: AMARE; settings: 20-22 d
Method: as §1, §2, §3, §4, §5, §6, §7
(§11) The following equation was used to calculate the expected activity of mixtures containing two active ingredients, A and B: Expected=A+B−(A×B/100) […]

[11] = system: GALAP; assay: Postemergence herbicidal activity, greenhouse, visual injury: GALAP; settings: 20-22 d
Method: as §1, §2, §3, §4, §5, §6, §7, §11

Work on `COc1c(N)nc(-c2ccc(C)cc2)nc1C(=O)O` [Compound 6, 6-amino-2-p-tolyl-5-methoxypyrimidine-4-carboxylic acid] yielded a pest or weed control at 35 g/ha ([1]; herbicide alone 35 g ae/ha) of 35%, a pest or weed control at 70 g/ha [1] of 20% and a pest or weed control at 140 g/ha ([1]; herbicide alone 140 g/ha) of 55%. For the same compound, the pest or weed control at 35 g/ha ([2]; herbicide alone 35 g ae/ha) was 25%, the pest or weed control at 70 g/ha [2] was 20% and the pest or weed control at 140 g/ha ([2]; herbicide alone 140 g/ha) was 40%. For the same compound, the pest or weed control at 70 g/ha [3] was 75%, the pest or weed control at 140 g/ha ([3]; herbicide alone 140 g/ha) was 80% and the “KCHSC Ob (visual injury)” value ([4]; herbicide alone 70 g/ha) was 60%. The “KCHSC Ob (visual injury)” value ([4]; herbicide alone 140 g/ha) was 70%, the “PAPRH Ob (visual injury)” value ([5]; herbicide alone 70 g/ha) was 97% and the “PAPRH Ob (visual injury)” value ([5]; herbicide alone 140 g/ha) was 100%. For the same compound, the “CHEAL Ob (visual injury)” value ([6]; herbicide alone 35 g ae/ha) was 83%.

For `CCOC(=O)c1nc(C(Cl)(Cl)Cl)n(-c2ccc(Cl)cc2Cl)n1` [Fenchlorazole-ethyl, fenchlorazole-ethyl, reference compound], the pest or weed control at 140 g/ha ([1]; safener alone 140 g ae/ha) was 0%, the pest or weed control at 140 g/ha ([2]; safener alone 140 g ae/ha) was 0% and the pest or weed control at 140 g/ha ([3]; safener alone 140 g ae/ha) was 0%. For the same compound, the “CHEAL Ob (visual injury)” value ([6]; safener alone 140 g ae/ha) was 0%.

Compound `COc1c(Cl)ccc(-c2nc(N)c(Cl)c(C(=O)O)n2)c1F` [Compound 1, 6-amino-5-chloro-2-(4-chloro-2-fluoro-3-methoxyphenyl)pyrimidine-4-carboxylic acid] has a pest or weed control at 70 g/ha [1] of 25%, a pest or weed control at 140 g/ha ([1]; herbicide alone 140 g/ha) of 45% and a pest or weed control at 70 g/ha [2] of 15%. The pest or weed control at 140 g/ha ([2]; herbicide alone 140 g/ha) was 30%, the “TRZAW Ob (visual injury)” value ([7]; herbicide alone 70 g/ha) was 35% and the “TRZAW Ob (visual injury)” value ([7]; herbicide alone 140 g/ha) was 40%. The “HORVW Ob (visual injury)” value ([8]; herbicide alone 70 g/ha) was 15%, the “HORVW Ob (visual injury)” value ([8]; herbicide alone 140 g/ha) was 40% and the “TRZDU Ob (visual injury)” value ([9]; herbicide alone 70 g/ha) was 15%. For the same compound, the “TRZDU Ob (visual injury)” value ([9]; herbicide alone 140 g/ha) was 35%, the “AMARE Ob (visual injury)” value ([10]; herbicide alone 70 g/ha) was 100% and the “AMARE Ob (visual injury)” value ([10]; herbicide alone 140 g/ha) was 100%. The “GALAP Ob (visual injury)” value ([11]; herbicide alone 70 g/ha) was 95%, the “GALAP Ob (visual injury)” value ([11]; herbicide alone 140 g/ha) was 95% and the pest or weed control at 70 g/ha [3] was 95%. For the same compound, the pest or weed control at 140 g/ha ([3]; herbicide alone 140 g/ha) was 99%.

— patent US9408387B2, “Safening 6-amino-2-(substituted phenyl)-5-substituted-4-pyrimidinecarboxylate herbicide injury on cereal crops” (Dow AgroSciences LLC, priority 2009, dated 2016)
